The source of these data is ChEMBL document CHEMBL2074565, “Molecular mechanisms of organic cation transport in OCT2-expressing Xenopus oocytes” (Biochim Biophys Acta, 1999).

For data set [1], the target named is T1, Solute carrier family 22 member 2 (Rattus norvegicus, UniProt Q9R0W2).
T1 sequence (Q9R0W2 whole entry): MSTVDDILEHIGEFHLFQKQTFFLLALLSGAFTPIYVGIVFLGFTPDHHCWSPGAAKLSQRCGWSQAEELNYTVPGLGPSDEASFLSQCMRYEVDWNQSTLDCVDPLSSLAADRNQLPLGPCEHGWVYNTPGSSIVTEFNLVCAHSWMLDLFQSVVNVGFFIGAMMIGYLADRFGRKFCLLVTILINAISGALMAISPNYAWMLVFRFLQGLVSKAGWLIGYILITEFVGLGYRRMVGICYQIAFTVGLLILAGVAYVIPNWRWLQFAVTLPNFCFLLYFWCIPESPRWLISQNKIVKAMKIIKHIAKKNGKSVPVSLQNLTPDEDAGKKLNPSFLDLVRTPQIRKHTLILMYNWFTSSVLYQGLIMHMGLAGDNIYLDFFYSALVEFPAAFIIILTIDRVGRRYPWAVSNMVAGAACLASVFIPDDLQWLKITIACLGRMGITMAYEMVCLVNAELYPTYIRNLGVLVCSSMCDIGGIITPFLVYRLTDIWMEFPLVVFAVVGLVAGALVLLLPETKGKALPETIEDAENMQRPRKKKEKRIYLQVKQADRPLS
In words: TP_TRANSPORTER: inhibition of TEA uptake (TEA: 100 uM) in Xenopus laevis oocytes. The format is functional, cell-based, Oocyte.

The target of data set [2] is T2, Solute carrier family 22 member 1 (Rattus norvegicus, UniProt Q63089).
T2 sequence (Q63089 whole entry): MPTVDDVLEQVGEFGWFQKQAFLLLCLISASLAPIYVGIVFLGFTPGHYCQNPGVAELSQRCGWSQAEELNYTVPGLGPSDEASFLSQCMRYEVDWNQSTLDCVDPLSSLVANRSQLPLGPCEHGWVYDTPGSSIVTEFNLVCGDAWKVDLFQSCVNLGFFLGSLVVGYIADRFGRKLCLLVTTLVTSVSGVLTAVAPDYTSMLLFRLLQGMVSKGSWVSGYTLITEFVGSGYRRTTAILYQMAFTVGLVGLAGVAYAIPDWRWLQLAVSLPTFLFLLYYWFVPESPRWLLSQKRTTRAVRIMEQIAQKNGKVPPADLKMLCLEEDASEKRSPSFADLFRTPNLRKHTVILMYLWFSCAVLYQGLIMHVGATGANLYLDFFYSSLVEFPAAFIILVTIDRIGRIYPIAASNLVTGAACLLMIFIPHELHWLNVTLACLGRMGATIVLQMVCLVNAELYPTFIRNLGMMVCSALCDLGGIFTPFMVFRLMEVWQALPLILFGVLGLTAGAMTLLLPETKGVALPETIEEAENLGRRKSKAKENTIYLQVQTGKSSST

The target of data set [3] is T1, Solute carrier family 22 member 2. Put plainly: TP_TRANSPORTER: inhibition of TEA uptake (TEA: 250 uM, Levofloxacin: 5000 uM) in Xenopus laevis oocytes. The following applies: oocyte. The format is functional, cell-based.
Substrate in data set [4]: CC[N+](CC)(CC)CC
Put plainly: cells, lysate or membranes named.

For `CCN1/C(=C/c2ccc3ccccc3[n+]2CC)C=Cc2ccccc21`, the IC50 (as a rule, the concentration at which inhibition is half-maximal) in data set [1] is 13.8 µM.

For `C[N+](C)(C)CCO` [CHOLINE], the IC50 in data set [1] came out at 159 µM; in data set [2], 398 µM. The corresponding values for `CN/C(=N/CCSCc1nc[nH]c1C)NC#N` [CIMETIDINE] are 373 µM and 329 µM.

Regarding `C[C@H]1COc2c(N3CCN(C)CC3)c(F)cc3c(=O)c(C(=O)O)cn1c23.C[C@H]1COc2c(N3CCN(C)CC3)c(F)cc3c(=O)c(C(=O)O)cn1c23.O` [LEVOFLOXACIN], in data set [3], the Activity result was “inhibitor [+]”.

B1: Solute carrier family 22 member 2 (Rattus norvegicus) (protein)
chain: T1 sequence (Q9R0W2 whole entry)
As to B1, the Km (in general, the concentration of substrate that gives half-maximal velocity) in data set [4] turned out to be 33.8 µM.
